Like-named read-outs stand apart in the source and are kept apart here.
Tests used:
Type in all cases: cell-based
[1] = system: L. infantum MHOM/MA(BE)/67 amastigotes in primary peritoneal mouse macrophages; test: Leishmania infantum intracellular amastigote assay in mouse macrophages; conditions: Macrophage, 120 h
Outline: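 Amastigotes harvested from infected hamster spleen infected primary peritoneal mouse macrophages (5×10^5 amastigotes/well, 2 h, 37 °C). Compounds then present 5 d at 37 °C, 5% CO2. Parasite burden counted by microscopy after Giemsa staining, as % of untreated controls; IC50 from sigmoidal variable-slope fit.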

[2] = system: bloodstream-form trypanosome T. brucei brucei 427 strain; test: Trypanosoma brucei brucei high-throughput screening assay (resazurin)
Description: Example 105. Trypanosoma brucei brucei High-Throughput Screening Assay Procedure
All experiments were conducted with the bloodstream-form trypanosome T. brucei brucei 427 strain obtained from Seattle Biomedical Research Institute (Seattle, Wash.). Parasites were cultured in T-25 vented cap flasks and kept in humidified incubators at 37° C. and 5% CO2. The parasite culture media was complete HMI-9 medium containing 10% FBS, 10% Serum Plus medium and penicillin/streptomycin. To ensure log growth phase, trypanosomes were sub-cultured at appropriate dilutions every 2-3 days. Approximately 50 microliters of log phase cultures were diluted 1:10 in HMI-9 and 10 μL of the diluted culture was removed and counted using a hemocytometer to determine parasite concentration. Parasites were diluted by addition of an appropriate volume of HMI-9 to achieve a final parasite concentration of 2×10^5/mL. Compounds of the invention to be tested were serially diluted in DMSO and 0.5 μL added to 49.5 μL HMI-9 in triplicate 96-well plates using a Biomek NX liquid handler. Parasites from the diluted stock were added to each well (50 μL) using a Multidrop 384 dispenser to give a final concentration of 1.0×10^5/ml parasites in […] for DMSO. Trypanosomes were incubated with compounds for 72 hrs at 37° C. with 5% CO2. Resazurin (20 μL of 12.5 mg/ml stock) from Sigma-Aldrich was added to each well and plates were incubated for an additional 2-4 hrs. Assay plates were read using an EnVision plate reader at an excitation wavelength of 544 nm and emission of 590 nm. Triplicate data points were averaged to generate sigmoidal dose response curve and determine IC50 values using XLfit curve fitting software from IDBS (Guildford, UK).

[3] = system: bloodstream forms of T. b. rhodesiense STIB 900; test: T. brucei rhodesiense STIB 900 growth inhibition assay; conditions: Trypanosoma brucei, 72 h
Outline: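 Bloodstream-form STIB 900 (10^4/well) were cultured in supplemented MEM with 15% horse serum and compound (90 to 0.123 μg/ml, 3-fold steps) for 72 h at 37 °C, 5% CO2. Viability was read by Alamar Blue fluorescence (ex 536/em 588 nm) after a further 2-4 h.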

[4] = system: IL3000 T. congolense (drug sensitive) strain; test: In vitro Alamar Blue 72 h drug sensitivity assay for T. congolense
Outline: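 Bloodstream-form trypanosomes in HMI medium with 20% bovine serum, exposed to compound for 69 h at 34 °C, 5% CO2, then resazurin for 3 h more. Fluorescence read at 536/588 nm. IC50 from 11-point sigmoidal dose-response curves, at least three independent runs.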

[5] = system: TdTomato-modified T. cruzi (CL strain) in Vero cells; test: In vitro IC50 measurement of T. cruzi amastigote killing using TdTomato-modified T. cruzi (CL strain); conditions: Trypanosoma cruzi, 72 h, fluorescence, read-out: IC50: I Org. amastigote Growth T. cruzi CL TdTomato, 3 d
Outline: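 Vero cells were infected with tdTomato-expressing CL-strain parasites and dosed at 5 uM–5 nM. Fluorescence (ex 544/em 612 nm) was read at day 0 and again after 72 h at 37 °C, with day 0 values subtracted. IC50 and IC90 came from nonlinear regression.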

[6] = system: Trypanosoma brucei rhodesiense STIB 900 strain; test: Trypanosoma brucei rhodesiense STIB 900 screening assay; conditions: 72 h
Description: Example 114. Trypanosoma brucei rhodesiense STIB 900 Screening Assay Procedure
The Trypanosoma brucei rhodesiense STIB 900 strain was isolated in 1982 from a human patient in Tanzania and after several mouse passages cloned and adapted to axenic culture conditions (Baltz, et al., EMBO Journal 4: 1273-1277 (1985); Thuita, et al., Acta Tropica 108: 6-10 (2008)). Minimum Essential Medium (50 μL) supplemented with 25 mM HEPES, 1 g/L additional glucose, 1% MEM non-essential amino acids (100×), 0.2 mM 2-mercaptoethanol, 1 mM Na-pyruvate and 15% heat inactivated horse serum was added to each well of a 96-well microtiter plate. Serial drug dilutions of seven 3-fold steps covering a range from 90 to 0.123 μg/mL were prepared. Then 10^4 bloodstream forms of T. b. rhodesiense STIB 900 in 50 μL was added to each well and the plate incubated at 37° C. under a 5% CO2 atmosphere for 72 h. 10 μL Alamar Blue (resazurin, 12.5 mg in 100 mL double-distilled water) was then added to each well and incubation continued for a further 2-4 h (Raz, et al., Acta Tropica 68: 139-47 (1997)). Then the plates were read with a Spectramax Gemini XS microplate fluorometer (Molecular Devices Corporation, Sunnyvale, Calif., USA) using an excitation wavelength of 536 nm and an emission wavelength of 588 nm. Data were transferred into the graphic program Softmax Pro (Molecular Devices), which calculated IC50 values.

[7] = read-out: Inhibition of Organism Growth in Leishmania infantum MHOM/MA/BE/67, 5 d [uM]
[8] = 72 h, read-out: IC50: I Org. Growth T. brucei brucei SBRI 427, 3 d [uM]
[9] = read-out: IC50: I Org. Growth T. brucei rhodesiense STIB 900, 3 d [uM]
[10] = amastigotes in primary peritoneal mouse macrophages, 5 d, Giemsa staining, read-out: Inhibition of Organism Growth in Leishmania infantum MHOM/MA/BE/67, 5 d
[11] = STIB 900 bloodstream forms, Alamar Blue, protocol of Example 114, read-out: Swiss TPH T b rhodesiense IC50
[12] = bloodstream forms, Alamar Blue, protocol of Example 110, read-out: IC50: I Org. Growth T. brucei rhodesiense STIB 900, 3 d
[13] = Trypanosoma congolense; bloodstream form, 69 h + 3 h resazurin, 34° C.; classes A-C; read-out: IC50: I Org. Growth T. congolense IL-3000, 3 d
[14] = bloodstream form, 72 hrs incubation, resazurin, read-out: IC50: I Org. Growth T. brucei brucei SBRI 427, 3 d
[15] = Trypanosoma congolense; read-out: inhibition of T. congolense IL-3000 growth at a concentration of 1.0 μM (classes D, E)

O=C(Nc1ccc2c(c1)B(O)OC2)c1nc(-c2ccccn2)n[nH]1 [Example 94, N-(1-hydroxy-1,3-dihydrobenzo[c][1,2]oxaborol-6-yl)-3-(pyridin-2-yl)-1H-1,2,4-triazole-5-carboxamide] was tested, and the IC50 [1, 7] was 3 to 19.9 µM, the IC50 [2, 8] was under 0.075 µM and the IC50 [3, 9] was under 0.1 µM. For the same molecule, the inhibition at 1 µM ([4]; Trypanosoma congolense, read-out: inhibition of T. congolense IL-3000 growth at a concentration of 1.0 μM (classes D, E)) was over 75%.
Cn1nc(-c2ccccn2)nc1C(=O)Nc1ccc2c(c1)B(O)OC2 [Example 95, N-(1-hydroxy-1,3-dihydrobenzo[c][1,2]oxaborol-6-yl)-1-methyl-3-(pyridine-2-yl)-1H-1,2,4-triazole-5-carboxamide] showed an IC50 [2, 8] of 0.151 to 10 µM.
Molecule Cc1cccc(-n2nnc(C(=O)Nc3ccc4c(c3)B(O)OC4)c2C)n1 [Example 81, N-(1-hydroxy-1,3-dihydrobenzo[c][1,2]oxaborol-6-yl)-5-methyl-1-(6-methylpyridin-2-yl)-1H-1,2,3-triazole-4-carboxamide] has an IC50 [1, 10] of 3 to 19.9 µM, an IC50 [5] of 1100 to 10000 nM and an IC50 [6, 11] of 100 to 250 nM. For the same molecule, the IC50 [3, 12] was 0.1 to 0.3 µM and the IC50 [4, 13] was under 100 nM.
For Cc1c(C(=O)Nc2ccc3c(c2)B(O)OC3)nnn1-c1ccc(Cl)cc1 [Example 90, 1-(4-chlorophenyl)-N-(1-hydroxy-1,3-dihydrobenzo[c][1,2]oxaborol-6-yl)-5-methyl-1H-1,2,3-triazole-4-carboxamide], the IC50 [2, 14] was 0.075 to 0.15 µM.
In the case of Cn1nc(-c2ccccc2)nc1C(=O)Nc1ccc2c(c1)B(O)OC2 [Example 96, N-(1-hydroxy-1,3-dihydrobenzo[c][1,2]oxaborol-6-yl)-1-methyl-3-phenyl-1H-1,2,4-triazole-5-carboxamide], the IC50 [2, 14] is reported as 0.151 to 10 µM and the inhibition at 1 µM [4, 15] is reported as under 75%.
Molecule COc1cccc(-n2cc(C(=O)Nc3ccc4c(c3)B(O)OC4)nn2)n1 [Example 64, N-(1-hydroxy-1,3-dihydrobenzo[c][12]oxaborol-6-yl)-1-(6-methoxypyridine-2-yl)-1H-1,2,3-triazole-4-carboxamide] has an IC50 [1, 7] of under 3 µM, an IC50 ([6]; read-out: Swiss TPH T b rhodesiense IC50) of under 100 nM and an IC50 [3, 9] of 0.1 to 0.3 µM.
With Cc1cccc(-n2cc(C(=O)Nc3ccc4c(c3)B(O)OC4)nn2)n1 [Example 57, N-(1-hydroxy-1,3-dihydrobenzo[c][1,2]oxaborol-6-yl)-1-(6-methylpyridin-2-yl)-1H-1,2,3-triazole-4-carboxamide] the IC50 [1, 10] was under 3 µM, the IC50 [5] was under 600 nM and the IC50 [6, 11] was under 100 nM. The IC50 [3, 12] was under 0.1 µM and the IC50 [4, 13] was under 100 nM.
In the case of COc1cccc(-n2nnc(C(=O)Nc3ccc4c(c3)B(O)OC4)c2C)n1 [Example 65, N-(1-hydroxy-1,3-dihydrobenzo[c][1,2]oxaborol-6-yl)-1-(6-methoxypyridin-2-yl)-5-methyl-1H-1,2,3-triazole-4-carboxamide], the IC50 [1, 10] is reported as under 3 µM, the IC50 [5] is reported as under 600 nM and the IC50 [6, 11] is reported as under 100 nM. The IC50 [3, 12] was under 0.1 µM and the IC50 [4, 13] was under 100 nM.
Molecule O=C(Nc1ccc2c(c1)B(O)OC2)c1nc(-c2cccnc2)n[nH]1 [Example 98, N-(1-hydroxy-1,3-dihydrobenzo[c][1,2]oxaborol-6-yl)-3-(pyridin-3-yl)-1H-1,2,4-triazole-5-carboxamide] has an IC50 [2, 8] of 0.151 to 10 µM.
O=C(Nc1ccc2c(c1)B(O)OC2)c1nc(-c2ccccc2)n[nH]1 [Example 101, N-(1-hydroxy-1,3-dihydrobenzo[c][1,2]oxaborol-6-yl)-3-phenyl-1H-1,2,4-triazole-5-carboxamide] was tested, and the IC50 [2, 14] was 0.075 to 0.15 µM and the inhibition at 1 µM [4, 15] was over 75%.
In the case of Cn1nc(C(=O)Nc2ccc3c(c2)B(O)OC3)nc1-c1ccc(F)cc1 [Example 100, 5-(4-Fluorophenyl)-N-(1-hydroxy-1,3-dihydrobenzo[c][1,2]oxaborol-6-yl)-1-methyl-1H-1,2,4-triazole-3-carboxamide], the IC50 [2, 14] is reported as 0.075 to 0.15 µM.
In the case of O=C(Nc1ccc2c(c1)B(O)OC2)c1cn(-c2cccnc2)nn1 [Example 63, N-(1-hydroxy-1,3-dihydrobenzo[c][1,2]oxaborol-6-yl)-1-(pyridin-3-yl)-1H-1,2,3-triazole-4-carboxamide], the IC50 [1, 10] is reported as 20 to 100 µM, the IC50 [5] is reported as 1100 to 10000 nM and the IC50 [6, 11] is reported as 100 to 250 nM. The IC50 [3, 12] was 0.1 to 0.3 µM and the IC50 [4, 13] was under 100 nM.
Work on O=C(Nc1ccc2c(c1)B(O)OC2)c1nc(-c2ccc(F)cc2)n[nH]1 [Example 99, 3-(4-Fluorophenyl)-N-(1-hydroxy-1,3-dihydrobenzo[c][1,2]oxaborol-6-yl)-1H-1,2,4-triazole-5-carboxamide] yielded an IC50 [1, 7] of under 3 µM, an IC50 [2, 8] of under 0.075 µM and an IC50 [3, 9] of 0.1 to 0.3 µM.
Cn1nc(-c2ccc(F)cc2)nc1C(=O)Nc1ccc2c(c1)B(O)OC2 [Example 97, 3-(4-fluorophenyl)-N-(1-hydroxy-1,3-dihydrobenzo[c][1,2]oxaborol-6-yl)-1-methyl-1H-1,2,4-triazole-5-carboxamide] showed an IC50 [2, 14] of 0.151 to 10 µM and an inhibition at 1 µM [4, 15] of under 75%.
Cn1nc(C(=O)Nc2ccc3c(c2)B(O)OC3)nc1-c1ccccc1 [Example 102, N-(1-Hydroxy-1,3-dihydrobenzo[c][1,2]oxaborol-6-yl)-1-methyl-5-phenyl-1H-1,2,4-triazole-3-carboxamide] gave an IC50 [1, 10] of under 3 µM, an IC50 [2, 14] of 0.075 to 0.15 µM and an IC50 [3, 12] of under 0.1 µM.
Cn1nc(C(=O)Nc2ccc3c(c2)B(O)OC3)nc1-c1ccccn1 [Example 80, N-(1-hydroxy-1,3-dihydrobenzo[c][1,2]oxaborol-6-yl)-1-methyl-5-(pyridin-2-yl)-1H-1,2,4-triazole-3-carboxamide] showed an IC50 [1, 10] of under 3 µM, an IC50 [2, 14] of under 0.075 µM and an IC50 [3, 12] of 0.1 to 0.3 µM. It also gave an IC50 [4, 13] of 100 to 300 nM.

Source: patent US11691992B2 (Anacor Pharmaceuticals, Inc., priority 2017, dated 2023)
